MIC50, MIC90 and MIC data for three compounds are collected here from ChEMBL document CHEMBL1255373, “In vitro antibacterial activity of CE-156811, a novel analog derived from hygromycin A” (2008).

SMILES strings stand for the structures. Converted amounts (≈) assume the structure as drawn.

Common to all, as to format: functional
Experiment [1] has as its system Staphylococcus aureus. As to the kind of experiment: Antibacterial activity against methicillin-susceptible Staphylococcus aureus clinical isolate by broth microdilution method. (Broth dilution looks for growth in wells or tubes with falling amounts of substance.)
In experiment [2] the test system is Staphylococcus aureus. As to the kind of experiment: Antibacterial activity against methicillin-resistant Staphylococcus aureus clinical isolate by broth microdilution method.
In experiment [3] the test system is Staphylococcus epidermidis. The experiment in a line: Antibacterial activity against methicillin-susceptible Staphylococcus epidermidis clinical isolate by broth microdilution method.
The test system of experiment [4] is Staphylococcus. The experiment in a line: Antibacterial activity against coagulase-negative Staphylococcus clinical isolate by broth microdilution method.
Experiment [5] deals with Enterococcus faecalis. As to the kind of experiment: Antibacterial activity against vancomycin-susceptible Enterococcus faecalis clinical isolate by broth microdilution method.
Experiment [6] deals with Enterococcus faecalis. The experiment in a line: Antibacterial activity against vancomycin-resistant Enterococcus faecalis clinical isolate by broth microdilution method.
Experiment [7] concerns Enterococcus faecium. As to the kind of experiment: Antibacterial activity against vancomycin-susceptible Enterococcus faecium clinical isolate by broth microdilution method.
Experiment [8] deals with Enterococcus faecium. As to the kind of experiment: Antibacterial activity against vancomycin-resistant Enterococcus faecium clinical isolate by broth microdilution method.
Experiment [9] concerns Streptococcus pneumoniae. The experiment in a line: Antibacterial activity against penicillin-susceptible Streptococcus pneumoniae clinical isolate by broth microdilution method.
Experiment [10] relates to Streptococcus pneumoniae. The experiment in a line: Antibacterial activity against penicillin-nonsusceptible Streptococcus pneumoniae clinical isolate by broth microdilution method.
Experiment [11] deals with Listeria monocytogenes. The experiment in a line: Antibacterial activity against Listeria monocytogenes clinical isolate by broth microdilution method.
The subject of experiment [12] is Corynebacterium sp. As to the kind of experiment: Antibacterial activity against Corynebacterium sp. by broth microdilution method.
The subject of experiment [13] is Enterococcus faecalis. As to the kind of experiment: Antibacterial activity against […] Enterococcus faecalis ATCC 29212 by broth microdilution method.
The subject of experiment [14] is Enterococcus faecalis. As to the kind of experiment: Antibacterial activity against linezolid-resistant Enterococcus faecalis 03A1128 by broth microdilution method.
Experiment [15] concerns Enterococcus faecium. The experiment in a line: Antibacterial activity against linezolid-resistant Enterococcus faecium 03B1073 by broth microdilution method.
Experiment [16] relates to Enterococcus faecium. As to the kind of experiment: Antibacterial activity against linezolid-resistant Enterococcus faecium 03B1077 by broth microdilution method.
Experiment [17] has as its system Enterococcus faecium. The experiment in a line: Antibacterial activity against linezolid-resistant Enterococcus faecium 03B1074 by broth microdilution method.
Experiment [18] deals with Enterococcus faecium. As to the kind of experiment: Antibacterial activity against linezolid-resistant Enterococcus faecium 03B1075 by broth microdilution method.
For experiment [19], the system named is Enterococcus faecium. The experiment in a line: Antibacterial activity against linezolid-resistant Enterococcus faecium 03B1078 by broth microdilution method.
For experiment [20], the system named is Moraxella catarrhalis. The experiment in a line: Antibacterial activity against Moraxella catarrhalis clinical isolate by broth microdilution method.
Experiment [21] relates to Haemophilus influenzae. The experiment in a line: Antibacterial activity against Haemophilus influenzae clinical isolate by broth microdilution method.

As to `CN[C@H](CC(C)C)C(=O)N[C@H]1C(=O)N[C@@H](CC(N)=O)C(=O)N[C@H]2C(=O)N[C@H]3C(=O)N[C@H](C(=O)N[C@H](C(=O)O)c4cc(O)cc(O)c4-c4cc3ccc4O)[C@H](O)c3ccc(c(Cl)c3)Oc3cc2cc(c3O[C@@H]2O[C@H](CO)[C@@H](O)[C@H](O)[C@H]2O[C@H]2C[C@](C)(N)[C@H](O)[C@H](C)O2)Oc2ccc(cc2Cl)[C@H]1O` [VANCOMYCIN], the MIC50 in [1] is 0.5 µg/mL (≈ 0.345 µM); in experiment [2] it was 1 µg/mL (≈ 0.69 µM); in experiment [3], 1 µg/mL (≈ 0.69 µM); in [4], 2 µg/mL (≈ 1.38 µM); in experiment [5], 2 µg/mL (≈ 1.38 µM); in experiment [6], over 32 µg/mL. Moreover, the MIC50 is 1 µg/mL (≈ 0.69 µM) in experiment [7]; over 32 µg/mL in experiment [8]; 0.25 µg/mL (≈ 0.173 µM) in experiment [9]; 0.25 µg/mL (≈ 0.173 µM) in experiment [10]; 1 µg/mL (≈ 0.69 µM) in experiment [11]; 0.5 µg/mL (≈ 0.345 µM) in [12]. In addition, the MIC90 in experiment [1] was 1 µg/mL (≈ 0.69 µM); in [2] it was 2 µg/mL (≈ 1.38 µM); in experiment [3], 2 µg/mL (≈ 1.38 µM); in experiment [4] it was 2 µg/mL (≈ 1.38 µM); in experiment [5], 4 µg/mL (≈ 2.76 µM); in experiment [6], over 32 µg/mL. The MIC90 in experiment [7] is 1 µg/mL (≈ 0.69 µM); in experiment [8], over 32 µg/mL; in [9] it was 0.25 µg/mL (≈ 0.173 µM); in experiment [10], 0.25 µg/mL (≈ 0.173 µM); in [11], 1 µg/mL (≈ 0.69 µM); in experiment [12], 1 µg/mL (≈ 0.69 µM). Moreover, the MIC (commonly the smallest concentration in the dilution series that meets the test's criterion for growth inhibition) is 0.25 µg/mL (≈ 0.173 µM) in experiment [9]; 1 µg/mL (≈ 0.69 µM) in [11]; 2 µg/mL (≈ 1.38 µM) in [13]; 1 µg/mL (≈ 0.69 µM) in [14]; over 32 µg/mL in experiment [15]; over 32 µg/mL in experiment [16]. Further, the MIC in experiment [17], in experiment [18] and in experiment [19] was over 32 µg/mL each time.
Take `CC1(C)S[C@@H]2[C@H](NC(=O)[C@H](N)c3ccc(O)cc3)C(=O)N2[C@H]1C(=O)O` [AMOXICILLIN]: the MIC50 in [20] came to 1 µg/mL (≈ 2.74 µM); in experiment [21] it was 2 µg/mL (≈ 5.47 µM). In addition, the values for the MIC90 in experiment [20] and in [21] were 8 µg/mL (≈ 21.9 µM) and 32 µg/mL (≈ 87.6 µM), respectively.
`CC1(C)S[C@@H]2[C@H](NC(=O)Cc3ccccc3)C(=O)N2[C@H]1C(=O)O` [PENICILLIN G]: in [9], the lowest concentration to inhibit growth (MIC) was 0.015 µg/mL (≈ 0.0449 µM), the MIC50 was 0.015 µg/mL (≈ 0.0449 µM) and the MIC90 worked out at 0.015 µg/mL (≈ 0.0449 µM). In experiment [10], the MIC50 was 2 µg/mL (≈ 5.98 µM) and the MIC90 was found to be 4 µg/mL (≈ 12 µM).
